Measured values reported in ChEMBL document CHEMBL5528024, “Comprehensive and critical view on the anti-inflammatory and immunomodulatory role of natural phenolic antioxidants” (Eur J Med Chem, 2024).
Converted amounts (≈) assume the structure as drawn.

Columns and labels:
Mus musculus = assay: Antidiabetic activity in six hour fasted type 2 diabetic C57BL/6 db/db mouse assessed as decrease in fasting blood glucose level at 250 mg/kg,po for 4 weeks by Glucose analyzer; assay type: functional; set-up: scale not given: the % may be the effect or the level left
[1] = Inhibition of Lipoxygenase (unknown origin); set-up: species or system Homo sapiens
Leishmania major = assay: Antileishmanial activity against Leishmania major MHOM/IL/80/Friendlin assessed as reduction in parasite growth incubated for 24 hrs by resazurin dye based analysis; assay type: functional, organism-based
Alpha-synuclein = Alpha-synuclein (Homo sapiens, UniProt P37840); assay: Inhibition of wild type full length recombinant alpha-synuclein (unknown origin) expressed in Escherichia coli by spectrophotometric analysis
Splenocyte [2] = assay: Immunomodulatory activity in mouse splenocytes assessed as maximum effect in CD4+ T cell production at 4 microg/ml incubated for 24 hrs by flow cytometry relative to control; assay type: functional; details: dose 4 µg/ml
Splenocyte [3] = assay: Immunomodulatory activity in mouse splenocytes assessed as maximum effect in CD3+ T cell production at 4 microg/ml incubated for 24 hrs by flow cytometry relative to control; assay type: functional; details: dose 4 µg/ml
Rattus norvegicus [4] = assay: Anti-inflammatory activity against serotonin-induced paw edema in Sprague-Dawley rat assessed as inhibition of paw edema at 10 mg/kg, po measured after 5 hrs relative to control; assay type: functional; set-up: scale not given: the % may be the effect or the level left
Rattus norvegicus [5] = species: Rattus norvegicus; assay: Antioxidant activity in Vitamin E deficient rat model assessed as onset of ascorbate/Fe2+/ADP complex-initiated peroxidation delayed time by measuring onset of peroxidation (lag phase) at 0.25 mM by Thiobarbituric acid substance assay; assay type: functional
Rattus norvegicus [6] = species: Rattus norvegicus; assay: Antioxidant activity in Vitamin E deficient rat model assessed as onset of ascorbate/Fe2+/ADP complex-initiated peroxidation delayed time by measuring onset of peroxidation (lag phase) at 0.5 mM by Thiobarbituric acid substance assay; assay type: functional

## O=C(/C=C/c1ccc(O)c(O)c1)O[C@@H]1C[C@](O)(C(=O)O)C[C@@H](O)[C@H]1O [CHLOROGENIC ACID]
Mus musculus
  Activity: 31%

## COc1cc(/C=C/C(=O)CC(=O)/C=C/c2ccc(O)c(OC)c2)ccc1O [CURCUMIN]
[1]
  IC50: 45.3 µM

## O=c1oc2c(O)c(O)cc3c(=O)oc4c(O)c(O)cc1c4c23 [ELLAGIC ACID]
Leishmania major
  EC50: 0.9 µg/mL (≈ 2.98 µM)

## COc1cc(/C=C/C(=O)O)ccc1O [FERULATE]
Alpha-synuclein
  IC50: 13 µM

## O=c1c(O)c(-c2ccc(O)c(O)c2)oc2cc(O)ccc12 [FISETIN]
Splenocyte [2]
  Activity: 28.92%
Splenocyte [3]
  Activity: 39.62%

## O=C(O)c1cc(O)c(O)c(O)c1 [GALLIC ACID]
Leishmania major
  EC50: 5 µg/mL (≈ 29.4 µM)

## COc1ccc2c(c1)c(CC(=O)O)c(C)n2C(=O)c1ccc(Cl)cc1 [INDOMETHACIN]
Rattus norvegicus [4]
  Activity: 34.2%

## O=c1c(O)c(-c2cc(O)c(O)c(O)c2)oc2cc(O)cc(O)c12 [MYRICETIN]
Rattus norvegicus [5]
  Time: 12.6 min
Rattus norvegicus [6]
  Time: 14.3 min
